Reference: EP4603105A1, “PHARMACEUTICAL COMPOSITION CONTAINING CYCLIC COMPOUND HAVING SELECTIVE KRAS INHIBITORY EFFECT AGAINST HRAS AND NRAS” (CHUGAI SEIYAKU KABUSHIKI KAISHA, priority 2022, dated 2024)
*1 amine or outer side, *2 acyl side, *3 side chain or, on linkers, in order; H or OH if unused. Where a SMILES comes first, the peptide text is derived from it. Bridges are numbered along the chain shown (N, C = ends). [ ]: non-standard residue; d: D form. The star is where a group is joined. hPhe(3,5-F2-4-CF3) = N[C@@H](CCc1cc(F)c(C(F)(F)F)c(F)c1)C(=O)O; hPhe(3-Cl-4-CF3) = N[C@@H](CCc1ccc(C(F)(F)F)c(Cl)c1)C(=O)O; NPrPhe(4-CF3) = CCCN[C@@H](Cc1ccc(C(F)(F)F)cc1)C(=O)O; X50 = C=CCN([C@@H](Cc1ccc(C)cc1)C(=O)[*:2])[*:1]; NMeGly(cPent) = CN[C@H](C(=O)O)C1CCCC1; NMeAllylGly = C=CC[C@H](NC)C(=O)O; NMeD = CN[C@@H](CC(=O)O)C(=O)O; NMeL = CN[C@@H](CC(C)C)C(=O)O; αMeS = C[C@](N)(CO)C(=O)O; Morpholide = C1CN(*)CCO1; Ac5c = NC1(C(=O)O)CCCC1; Aze = O=C(O)[C@@H]1CCN1; Sar = CNCC(=O)O; Allyl = C=CC*

How the values were obtained:
[1] = test system: human lung cancer strain NCI-H441; assay type: cell-based
Procedure, shortened: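 Proliferation was scored by […] measured after the reagent was added to cultures kept at 37°C in 5% carbon dioxide.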

[2] = molecular target: GDP-bound NRAS wild-type protein (Homo sapiens, UniProt P01111); assay: Binding to NRAS by surface plasmon resonance (SPR), KD and KD ratio to KRAS
GDP-bound NRAS wild-type protein, sequence (P01111 whole entry): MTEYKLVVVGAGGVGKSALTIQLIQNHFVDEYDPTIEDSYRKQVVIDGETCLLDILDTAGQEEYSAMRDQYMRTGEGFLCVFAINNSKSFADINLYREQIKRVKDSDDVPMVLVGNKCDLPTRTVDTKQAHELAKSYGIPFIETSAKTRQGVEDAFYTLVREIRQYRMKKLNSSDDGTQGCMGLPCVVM
Procedure, shortened: (§1)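 Single-cycle kinetics on GDP-loaded biotin-Avi RAS captured to ~100–300 RU; 75 s ascending injections, 100 µL/min, 30°C. HBS pH 7.4 + 10 mM MgCl2/10 µM GDP/4% DMSO. 1:1 fit, KD.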

HRAS wild-type protein = HRAS wild-type protein (Homo sapiens, UniProt P01112); assay: Binding to HRAS by surface plasmon resonance (SPR), KD and KD ratio to KRAS
HRAS wild-type protein, sequence (P01112 whole entry): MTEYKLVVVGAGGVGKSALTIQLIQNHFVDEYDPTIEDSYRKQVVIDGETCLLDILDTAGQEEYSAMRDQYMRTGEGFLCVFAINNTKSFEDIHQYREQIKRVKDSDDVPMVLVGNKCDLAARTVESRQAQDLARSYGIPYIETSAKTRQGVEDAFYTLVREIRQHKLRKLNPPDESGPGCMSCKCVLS
Procedure, shortened: as §1

[3] = ratio of the KD value with respect to GDP-bound NRAS wild-type protein to the KD value with respect to KRAS
[4] = ratio of the KD value with respect to HRAS wild-type protein to the KD value with respect to KRAS
[5] = ratio of KD for GDP-bound NRAS wild-type protein to KD for KRAS
[6] = ratio of KD for HRAS wild-type protein to KD for KRAS

Compound | IC50 [1] [nM] | NRAS /KRAS [2, 3] | HRAS /KRAS (HRAS wild-type protein; [4]) | NRAS /KRAS [2, 5] | HRAS /KRAS (HRAS wild-type protein; [6]) | NRAS /KRAS ([2]; ratio of KD with respect to GDP-bound NRAS wild-type protein to KD with respect to KRAS) | HRAS /KRAS (HRAS wild-type protein; ratio of KD with respect to HRAS wild-type protein to KD with respect to KRAS)
C=CC[C@H]1C(=O)N(CC=C)[C@@H](Cc2ccc(C)cc2)C(=O)N(C)CC(=O)N[C@@H](CCc2ccc(C(F)(F)F)c(Cl)c2)C(=O)N2CCC[C@H]2C(=O)NC2(CCCC2)C(=O)N(C)[C@@H](C2CCCC2)C(=O)N(C)[C@H](C(=O)N2CCOCC2)CC(=O)N(C)[C@@H](CC(C)C)C(=O)N[C@@H]([C@@H](C)CC)C(=O)N(C)CC(=O)N1C [PP0139] ([NMeL]I[Sar][NMeAllylGly][X50][Sar][hPhe(3-Cl-4-CF3)]P[Ac5c][NMeGly(cPent)][NMeD]-Morpholide; lactam N-11) | 1500 |  |  | C (A compound having a KD ratio of 0.1 or more and less than 3 is denoted as C) | C (A compound having a KD ratio of 0.1 or more and less than 3 is denoted as C) |  | 
C=CCOC[C@]1(C)NC(=O)[C@@H]2CCCN2C(=O)[C@H](CCc2cc(F)c(C(F)(F)F)c(F)c2)NC(=O)CN(C)C(=O)[C@H](Cc2ccc(C(F)(F)F)cc2)N(CCC)C(=O)CN(C)C(=O)CN(C)C(=O)[C@H]([C@@H](C)CC)NC(=O)[C@H](CC(C)C)N(C)C(=O)C[C@@H](C(=O)N(C)C)N(C)C(=O)[C@H](C2CCCC2)N(C)C1=O [PP0742] ([NMeL]I[Sar][Sar][NPrPhe(4-CF3)][Sar][hPhe(3,5-F2-4-CF3)]P[αMeS](Allyl)[NMeGly(cPent)][NMeD]-NMe2; lactam N-11) | 73.3 | B (a compound having 3 or more and less than 10 is denoted as B) | B (a compound having 3 or more and less than 10 is denoted as B) |  |  |  | 
CCCN1C(=O)[C@@H]2CCN2C(=O)CN(C)C(=O)[C@H]([C@@H](C)CC)NC(=O)[C@H](CC(C)C)N(C)C(=O)C[C@@H](C(=O)N(C)C)N(C)C(=O)[C@H](C2CCCC2)N(C)C(=O)C2(CCCC2)NC(=O)[C@@H]2CCCN2C(=O)[C@H](CCc2ccc(C(F)(F)F)c(Cl)c2)NC(=O)CN(C)C(=O)[C@@H]1Cc1ccc(C(F)(F)F)cc1 [PP0440] ([NMeL]I[Sar][Aze][NPrPhe(4-CF3)][Sar][hPhe(3-Cl-4-CF3)]P[Ac5c][NMeGly(cPent)][NMeD]-NMe2; lactam N-11) | 4.4 | C (A compound having a KD ratio of 0.1 or more and less than 3 is denoted as C) | B (a compound having 3 or more and less than 10 is denoted as B) |  |  |  | 

Second part, led by results:

IC50 [1] [nM] | Compound | NRAS /KRAS [2, 3] | HRAS /KRAS (HRAS wild-type protein; [4]) | NRAS /KRAS [2, 5] | HRAS /KRAS (HRAS wild-type protein; [6]) | NRAS /KRAS ([2]; ratio of KD with respect to GDP-bound NRAS wild-type protein to KD with respect to KRAS) | HRAS /KRAS (HRAS wild-type protein; ratio of KD with respect to HRAS wild-type protein to KD with respect to KRAS)
8.7 | CCCOC[C@H]1C(=O)N[C@@H]([C@@H](C)CC)C(=O)N(C)CC(=O)N(C)[C@H]2C/C=C\CCN(C2=O)[C@@H](Cc2ccc(C(F)(F)F)cc2)C(=O)N(C)CC(=O)N[C@@H](CCc2ccc(C(F)(F)F)c(OC)c2)C(=O)N2C[C@H](OCC)C[C@H]2C(=O)NC2(CC(C)(C)C2)C(=O)N(C)[C@@H](C2CCCC2)C(=O)N(C)[C@H](C(=O)N(C)CC)CC(=O)N1C [PP1973] | A (a compound having 10 or more and less than 20 is denoted as A) | B (a compound having 3 or more and less than 10 is denoted as B) |  |  |  | 
17.9 | CCO[C@@H]1C[C@H]2C(=O)NC3(CCC3)C(=O)N(C)[C@@H](C3CCCC3)C(=O)N(C)[C@H](C(=O)N3CCC3)CC(=O)N(C)[C@@H](CC)C(=O)N[C@@H]([C@@H](C)CC)C(=O)N(C)CC(=O)N(C)[C@H]3C/C=C\CCN(C3=O)[C@@H](Cc3ccc(C(F)(F)F)cc3)C(=O)N(C)CC(=O)N[C@@H](CCc3cc(F)c(C(F)(F)F)c(F)c3)C(=O)N2C1 [PP1091] |  |  | A (a compound having 10 or more and less than 20 is denoted as A) | B (a compound having 3 or more and less than 10 is denoted as B) |  | 
108 | CCC[C@H]1C(=O)N[C@@H]([C@@H](C)CC)C(=O)N(C)CC(=O)N(C)[C@H]2C/C=C\CCN(C2=O)[C@@H](Cc2ccc(C(F)(F)F)cc2)C(=O)N(C)CC(=O)N[C@@H](CCc2ccc(C(F)(F)F)c(OC)c2)C(=O)N2CCCC[C@H]2C(=O)NC2(CC(C)(C)C2)C(=O)N(C)[C@@H](C(CC)CC)C(=O)N(C)[C@H](C(=O)N(C)C)CC(=O)N1C [PP2934] |  |  | AA (a compound having 20 or more is denoted as AA) | A (a compound having 10 or more and less than 20 is denoted as A) |  | 
7.7 | CCO[C@@H]1C[C@H]2C(=O)NC3(CCC3)C(=O)N(C)[C@@H](C3CCCC3)C(=O)N(C)[C@H](C(=O)N(C)CCOC)CC(=O)N(C)[C@@H](CC(F)F)C(=O)N[C@@H]([C@@H](C)CC)C(=O)N(C)CC(=O)N(C)[C@H]3C/C=C\CCN(C3=O)[C@@H](Cc3ccc(C(F)(F)F)cc3)C(=O)N(C)CC(=O)N[C@@H](CCc3cc(F)c(C(F)(F)F)c(F)c3)C(=O)N2C1 [PP1320] |  |  |  |  | A (a compound having 10 or more and less than 20 is denoted as A) | A (a compound having 10 or more and less than 20 is denoted as A)
